Measurements from article PMC7578299, “The antiviral effects of baloxavir marboxil against influenza A virus infection in ferrets” (Influenza and Other Respiratory Viruses, 2020).
Where “and” joins values, the source holds several entries; their conditions need not be identical. Equal entries are not always repeated.

Experiment: Metabolic stability in liver microsomes, ferret
Format: in vitro ADME
Settings: for % Residual in liver microsome / % Residual in liver microsome Individual value: ferret; for % Residual in liver microsome: 0.5 mg/mL, 2 μmol/L, 37°C, mean of duplicates; for % Residual in liver microsome Individual value: duplicates
Procedure: Liver microsomes were prepared from ferrets, rats, dogs, and monkeys, as previously described. ^28 Human liver microsomes were obtained from Sekisui‐XenoTech, LLC and pooled (n = 15). Metabolic stability of the compounds in liver microsomes was tested in duplicate. Oseltamivir and cefcapene pivoxil were used as reference compounds. Liver microsomes at 0.5 mg/mL concentration (final volume of 0.2 mL) were incubated in Tris‐HCl buffer (pH 7.4), containing 50 mmol/L Tris‐HCl, 150 mmol/L KCl, 10 mmol/L MgCl2. The hydrolysis reaction was initiated by applying the test compound solution (final concentration 2 μmol/L). After incubation for 10, 20, and 30 minutes at 37°C, the hydrolysis was terminated by the addition of twofold volume of ice‐cold acetonitrile/methanol (1:1, v/v). Samples were centrifuged at 3000 rpm for 10 minutes prior to LC‐MS/MS analysis of compounds in the supernatants.

COC(=O)OCOc1c2n(ccc1=O)N([C@@H]1c3ccccc3SCc3c1ccc(F)c3F)[C@@H]1COCCN1C2=O [BXM, Baloxavir marboxil]
stability in liver microsomes (in words) (ferret liver microsomes): stable | % Residual in liver microsome (10 min): 98.5% | % Residual in liver microsome (20 min): 98.1% | % Residual in liver microsome (30 min): 90.8% | % Residual in liver microsome Individual value (10 minutes): 97.0% and 99.9% | % Residual in liver microsome Individual value (20 minutes): 98.3% and 97.9% | % Residual in liver microsome Individual value (30 minutes): 87.4% and 94.2%
